Reference: ChEMBL document CHEMBL1201862, “PubChem BioAssay data set” (2004)
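Exposure lasted 48 hours, with cells grown in 96-well plates and compounds tested at five concentrations. Here, GI50 denotes the concentration required for 50% inhibition of growth.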 Activity calls are given as the source filed them. No stated cut-off is given here; in the data, active = GI50 up to about 1.1 µM and inactive = higher.

Columns and labels:
Assay in all cases: NCI-60 cell line screen, 48 h
COLO 205 = system: COLO 205
EKVX = system: EKVX
HCT-15 = system: HCT-15
K562 = system: K562
KM12 = system: KM12
LOX IMVI = system: LOX IMVI
MDA-MB-231 = system: MDA-MB-231
MDA-N = system: MDA-N
Malme-3M = system: Malme-3M
NCI-H460 = system: NCI-H460
OVCAR-8 = system: OVCAR-8
PC-3 = system: PC-3
SN12C = system: SN12C
SW-620 = system: SW-620
U-251 = system: U-251
CCRF-CEM = system: CCRF-CEM
MOLT-4 = system: MOLT-4
SF-539 = system: SF-539

| SMILES | GI50 (COLO 205) | GI50 (EKVX) | GI50 (HCT-15) [µM] | GI50 (K562) | GI50 (KM12) | GI50 (LOX IMVI) | GI50 (MDA-MB-231) | GI50 (MDA-N) | GI50 (Malme-3M) | GI50 (NCI-H460) | GI50 (OVCAR-8) | GI50 (PC-3) | GI50 (SN12C) | GI50 (SW-620) | GI50 (U-251) | GI50 (CCRF-CEM) | GI50 (MOLT-4) | GI50 (SF-539) |
| --- | --- | --- | --- | --- | --- | --- | --- | --- | --- | --- | --- | --- | --- | --- | --- | --- | --- | --- |
| O=C(COc1ccc(OCC(=O)N2C(=O)CC/C2=N\c2ccc(Cl)cc2)cc1)N1C(=O)CS/C1=N\c1ccc(Cl)cc1 | 47.9 µM (inactive) | 76.9 µM (inactive) | > 100 | 66.4 µM (inactive) | 75.2 µM (inactive) | 25.2 µM (inactive) | 26.9 µM (inactive) | > 100 µM (inactive) | 77.3 µM (inactive) | 72.6 µM (inactive) | 47.5 µM (inactive) | 47.1 µM (inactive) | > 100 µM (inactive) | > 100 µM (inactive) | 29.5 µM (inactive) | – | – | – |
| O=c1[nH]c(=O)n(CCOc2ccccc2)cc1Nc1ccccc1 | > 100 µM (inactive) | > 100 µM (inactive) | > 100 | > 100 µM (inactive) | > 100 µM (inactive) | > 100 µM (inactive) | – | > 100 µM (inactive) | > 100 µM (inactive) | > 100 µM (inactive) | – | > 100 µM (inactive) | > 100 µM (inactive) | > 100 µM (inactive) | > 100 µM (inactive) | > 100 µM (inactive) | > 100 µM (inactive) | – |
| CC(CC=O)Nc1nn2c(=O)c3ccccc3nc2s1 (stereo not drawn) | > 100 µM (inactive) | > 100 µM (inactive) | > 100 | > 100 µM (inactive) | > 100 µM (inactive) | > 100 µM (inactive) | – | – | > 100 µM (inactive) | > 100 µM (inactive) | > 100 µM (inactive) | > 100 µM (inactive) | > 100 µM (inactive) | > 100 µM (inactive) | > 100 µM (inactive) | > 100 µM (inactive) | > 100 µM (inactive) | > 100 µM (inactive) |
| [O-][n+]1c2ccccc2[n+]([O-])c2cc(Br)ccc21 | 20.7 µM (inactive) | 16.7 µM (inactive) | 13.3 | 4.63 µM (inactive) | 12.6 µM (inactive) | 2.99 µM (inactive) | 24.4 µM (inactive) | – | 23.2 µM (inactive) | 10.4 µM (inactive) | 14.8 µM (inactive) | – | 21.5 µM (inactive) | 20.6 µM (inactive) | 14.6 µM (inactive) | 0.0507 µM (active) | 0.144 µM (active) | 13.9 µM (inactive) |
| Cc1ccc(-c2cc(N)n(-c3nc4c([nH]3)c(=O)n(C)c(=O)n4C)n2)cc1 | 3.62 µM (inactive) | 3.09 µM (inactive) | 0.47 | 4.03 µM (inactive) | 4.88 µM (inactive) | – | 8.97 µM (inactive) | 5.98 µM (inactive) | 3.86 µM (inactive) | 1.71 µM (inactive) | 3.37 µM (inactive) | 16.3 µM (inactive) | 5.32 µM (inactive) | – | 5.36 µM (inactive) | 2.64 µM (inactive) | 2.06 µM (inactive) | 4.24 µM (inactive) |
| O=C(NNCc1ccc(Cl)cc1)Nc1cccc2ccccc12 | > 100 µM (inactive) | > 100 µM (inactive) | > 100 | > 100 µM (inactive) | 68.4 µM (inactive) | > 100 µM (inactive) | – | > 100 µM (inactive) | > 100 µM (inactive) | 41.5 µM (inactive) | > 100 µM (inactive) | > 100 µM (inactive) | > 100 µM (inactive) | > 100 µM (inactive) | 58.5 µM (inactive) | > 100 µM (inactive) | 29.4 µM (inactive) | 47.4 µM (inactive) |
| CC1=N[C@@](C)(C2CC3C=CC2C3=O)COC1=O (stereo partly drawn) | > 100 µM (inactive) | > 100 µM (inactive) | – | > 100 µM (inactive) | > 100 µM (inactive) | – | > 100 µM (inactive) | > 100 µM (inactive) | > 100 µM (inactive) | > 100 µM (inactive) | > 100 µM (inactive) | > 100 µM (inactive) | > 100 µM (inactive) | > 100 µM (inactive) | > 100 µM (inactive) | > 100 µM (inactive) | > 100 µM (inactive) | > 100 µM (inactive) |
| O=C(NCCCCN(CCCNC(=O)C(F)(F)F)Cc1ccccc1)C(F)(F)F | > 100 µM (inactive) | > 100 µM (inactive) | > 100 | > 100 µM (inactive) | > 100 µM (inactive) | – | > 100 µM (inactive) | – | – | > 100 µM (inactive) | > 100 µM (inactive) | 92.3 µM (inactive) | > 100 µM (inactive) | > 100 µM (inactive) | > 100 µM (inactive) | > 100 µM (inactive) | > 100 µM (inactive) | > 100 µM (inactive) |
| COc1cc(S(=O)(=O)N/N=C/c2cc(Br)c(O)c(OC)c2)c(OC)cc1NC(C)=O | 23.4 µM (inactive) | 55.5 µM (inactive) | 52.6 | 41.5 µM (inactive) | > 100 µM (inactive) | 38.6 µM (inactive) | 52.6 µM (inactive) | 83.6 µM (inactive) | – | – | > 100 µM (inactive) | 62.2 µM (inactive) | 73.8 µM (inactive) | 35.1 µM (inactive) | > 100 µM (inactive) | 21.7 µM (inactive) | 42.9 µM (inactive) | 20.2 µM (inactive) |
| Cc1ccnc2nc(-c3ccc4ccccc4c3)cc(O)c12 | 0.621 µM (active) | 4.36 µM (inactive) | 0.43 | 0.403 µM (active) | 0.452 µM (active) | 0.818 µM (active) | 1.67 µM (inactive) | – | 1.14 µM (inactive) | – | 2.83 µM (inactive) | – | 4.01 µM (inactive) | 0.451 µM (active) | – | 1.04 µM (active) | 0.479 µM (active) | 1.22 µM (inactive) |
| COC[C@@H](/N=C/c1ccc(OC)cc1)C(C)C | 80.4 µM (inactive) | > 100 µM (inactive) | > 100 | > 100 µM (inactive) | > 100 µM (inactive) | > 100 µM (inactive) | – | > 100 µM (inactive) | > 100 µM (inactive) | > 100 µM (inactive) | > 100 µM (inactive) | > 100 µM (inactive) | > 100 µM (inactive) | > 100 µM (inactive) | > 100 µM (inactive) | > 100 µM (inactive) | > 100 µM (inactive) | – |
| COC(=O)[C@@H]1[C@H](O)[C@H](C)[C@H](O)[C@H](C)/C=C\C=C(\C)C(=O)Nc2c(C)c(OC(C)=O)c3c(c2O)C(=O)C(C)=C2OCOC(=C23)/C(C)=C/[C@@H](O)[C@H](O)[C@@H](C)[C@H]1OC(C)=O | – | > 100 µM (inactive) | – | 52.7 µM (inactive) | 95.3 µM (inactive) | 40 µM (inactive) | 92.9 µM (inactive) | 22.2 µM (inactive) | 34.6 µM (inactive) | – | 43.8 µM (inactive) | 31.8 µM (inactive) | 36.8 µM (inactive) | 32.1 µM (inactive) | > 100 µM (inactive) | 44.9 µM (inactive) | 26.5 µM (inactive) | – |
| Cc1cnc2sn(-c3ccc(Oc4ccccc4)cc3)c(=O)c2c1 | 20.5 µM (inactive) | 13.4 µM (inactive) | 7.38 | – | 13.4 µM (inactive) | 6.1 µM (inactive) | 20.5 µM (inactive) | 16.6 µM (inactive) | 1.7 µM (inactive) | 7.41 µM (inactive) | 28.8 µM (inactive) | 13.4 µM (inactive) | 17.9 µM (inactive) | 21.2 µM (inactive) | 17 µM (inactive) | 5.11 µM (inactive) | 8.67 µM (inactive) | 14 µM (inactive) |
| OCC1OC(n2cnc3c(Cl)nc(Nc4ccc(Cl)c(Cl)c4)nc32)CC1O (stereo not drawn) | 11 µM (inactive) | 9.98 µM (inactive) | 8.63 | 8.63 µM (inactive) | 8.83 µM (inactive) | 7.78 µM (inactive) | 11.8 µM (inactive) | – | 12 µM (inactive) | 7.91 µM (inactive) | 10.3 µM (inactive) | 9.57 µM (inactive) | 10.5 µM (inactive) | 11.9 µM (inactive) | 10.2 µM (inactive) | 8.65 µM (inactive) | 5.02 µM (inactive) | – |
| C#CC(O)/C=C/C(O)CCCC(O)CC#CC(O)C#CCCCCC(O)/C=C/CCCC(O)/C=C/CCCCCCCCCCCCCC(O)C(O)C#CC(=O)O (stereo not drawn) | > 25 µM (inactive) | > 25 µM (inactive) | > 25 | > 25 µM (inactive) | > 25 µM (inactive) | 13.9 µM (inactive) | > 25 µM (inactive) | > 25 µM (inactive) | 23.2 µM (inactive) | > 25 µM (inactive) | > 25 µM (inactive) | > 25 µM (inactive) | > 25 µM (inactive) | – | > 25 µM (inactive) | > 25 µM (inactive) | > 25 µM (inactive) | – |
| COc1cc(-c2cc(=O)c3cc4c(cc3[nH]2)OCO4)cc(OC)c1O | > 10 µM (inactive) | > 10 µM (inactive) | > 10 | > 10 µM (inactive) | > 10 µM (inactive) | > 10 µM (inactive) | > 10 µM (inactive) | > 10 µM (inactive) | – | > 10 µM (inactive) | > 10 µM (inactive) | > 10 µM (inactive) | > 10 µM (inactive) | > 10 µM (inactive) | > 10 µM (inactive) | > 10 µM (inactive) | > 10 µM (inactive) | > 10 µM (inactive) |
| COc1ccc(-c2csc(Cc3nc4ccccc4c(=O)n3-c3ccc(Cl)cc3)n2)cc1 | 34.9 µM (inactive) | 18.2 µM (inactive) | 29.1 | 14.6 µM (inactive) | 31 µM (inactive) | 39.4 µM (inactive) | 60.7 µM (inactive) | 22.7 µM (inactive) | > 100 µM (inactive) | 33.5 µM (inactive) | 57.7 µM (inactive) | 29.4 µM (inactive) | – | 58.3 µM (inactive) | 32.2 µM (inactive) | 28.9 µM (inactive) | 20 µM (inactive) | – |
